Experimental data from US12391673B2, “LANCL ligands” (NImmune Biopharma, Inc., priority 2020, dated 2025).

How the values were obtained:
[1] = tested on: Western diet model of nonalcoholic steatohepatitis; test: Western diet / CCl4 model of nonalcoholic steatohepatitis; assay type: in vivo, C57BL/6 mice; settings: 5 mg/kg oral gavage daily, after 4 weeks of treatment, vs vehicle
Method: WD-induced model. C57BL/6 mice were placed on a Western diet consisting of a high-fat diet with addition of 23.1 g/L d-fructose and 18.9 g/L d-glucose to drinking water and weekly intraperitoneal injections of 0.2 μL/g CCl4 to induce steatohepatitis. Matching groups on control diet were included. Mice were treated daily, in a therapeutic manner after 8 weeks of diet. Treatment with BT-108-1 (5 mg/kg) or vehicle control occurred by oral gavage. Dosage was calculated based off mean body weights.
Analysis. Livers were excised and weighed. Sections of livers were excised and stored in buffered formalin for Sirius red staining or snap frozen for assessment of triglycerides. Severity of fibrosis was assessed by scoring of Sirius red stained liver.

[2] = tested on: DSS colitis; test: DSS model of colitis; assay type: in vivo, mice; settings: 10 mg/kg once daily oral gavage, 7 days of DSS, vs vehicle
Method: DSS model. Mice were given DSS in drinking water for seven days to induce disruption of the epithelial layer. At project initiation, mice were 8 weeks of age and began dosing 24 hours after being placed on DSS. BT-108-1 was prepared within a 0.5% methylcellulose (12-15 cP) solution. Dosage used was 10 mg/kg delivered once daily. Dosage was calculated based off mean body weights for each gender. Oral dosage was delivered by orogastric gavage of dosage in 0.2 mL volume.
Flow Cytometry. Colons were collected into RPMI/FBS buffer containing collagenase (300 U/mL) and DNase (50 U/mL) for digestion. Tissues were digested for 60 minutes under stirring at 37° C. Resultant cellular suspensions were filtered through 100 μm strainers, centrifuged (300× g, 8 min), and washed in fresh RPMI. Following filtration of the resulting single cell suspensions, immune cells were purified by Percoll gradient of cell-containing 40% Percoll overlayed onto 70% Percoll solution. After centrifugation, interphase was collected and washed to obtain enriched colonic lamina propria cell fractions. Cells were labeled with mixtures of extracellular (CD45, CD3, CD4, CD8, CD19, NK1.1, F4/80, CD11b, Gr1) antibodies in a sequential live staining in 96-well plates. Data was acquired using a FACS Celesta flow cytometer with FACSDiva software.
Histopathology. Colonic tissues were fixed in 10% formalin, paraffin embedded, and H&E stained. Sections were examined using an Olympus microscope. Histological score was assessed through a composite scoring system of leukocytic infiltration, epithelial erosion, and mucosal thickness.

[3] = tested on: CD4+ T cells; test: Immunological screening in vitro in CD4+ T cells (flow cytometry); assay type: cell-based, C57BL/6 mice; settings: 100 nanomolar, 24 h, anti-CD3/CD28, PMA and ionomycin last 6 h, relative to vehicle control
Description: Cell culture. Spleens were excised from C57BL/6 mice. Spleens were crushed between the frosted ends of microscope slides and filtered to provide a cellular suspension. Red blood cells were lysed through hypotonic lysis. Remaining cells were washed and filtered. CD4+ T cells were enriched within the suspension using magnetic sorting based negative selection. Cells were collected and plated within 96 well plates coated with anti-CD3/CD28 and cultured in the presence of BT-108-1, BT-108-2, BT-108-6, BT-108-8, BT-108-12, and BT-108-15 at 0 or 100 nanomolar for 24 h. During the last 6 h of culture, cells were stimulated with phorbol 12-myristate-13-acetate (PMA) and ionomycin.
Immunological analysis. Cells were collected from 96 well plates and stained with a cocktail of antibodies for immunophenotyping by flow cytometry. Culture supernatant was collected and assayed for cytokine concentrations by cytometric bead array. Data was captured on a BD FACS Celesta and analyzed using FACSDiva.

[4] = tested on: NOD model of type 1 diabetes; test: NOD mouse model of type 1 diabetes; assay type: in vivo, Non-obese diabetic (NOD) ShiLt mice; settings: 10 mg/kg oral gavage daily, vs vehicle
Method: NOD model. Non-obese diabetic (NOD) ShiLt mice were used in this study. NOD mice have numerous genetic mutations that enable the spontaneous onset of hyperglycemia and pancreatic pathologies associated with T1D. Mice entered into the experiment at 9 weeks of age and were monitored for a 12-week period. Mice were treated daily with vehicle or 10 mg/kg BT-108-1 by oral gavage. Once weekly blood samples were collected from the tail vein to be tested for glucose concentration by glucometer.

[5] = tested on: imiquimod-induced psoriasis; test: Imiquimod induced model of psoriasis; assay type: in vivo, C57BL/6 mice; settings: 10 mg/kg oral gavage daily, one week, vs vehicle
Method: IMQ-induced model. C57BL/6 mice were anesthetized, shaved, and briefly exposed to depilatory cream on the surface of the back. Mice were given three days to recover from the procedure prior to entry to the study. After 3 days, mice were challenged with approximately 60 mg of […] imiquimod cream daily by spreading cream over the shaved area. Mice were scored daily for erythema, scaling and skin thickness. Treatment with BT-108-1 (10 mg/kg) or vehicle control occurred by oral gavage. Dosage was calculated based off mean body weights.
Analysis. Spleens were excised and crushed by microscope slides. Red blood cells were hypotonically lysed from the resultant suspension. Samples were filtered, washed and centrifuged prior to staining. Th1 (Tbet+ IFNγ+), Th17 (RORγT+ IL17+), Treg (CD25+ FOXP3+ IL10+) and Tfh (BCL6+ IL21+) were quantified from CD3+ CD4+ T cells by flow cytometry.

[6] = tested on: collagen induced arthritis; test: Collagen induced model of arthritis; assay type: in vivo, C57Bl/6 mice; settings: 5 mg/kg oral daily for four weeks, vs vehicle
Method: Models. Six-week-old C57Bl/6 mice were immunized with 200 μg of chicken collagen emulsified in complete Freund's adjuvant by intradermal injections at the base of the tail. Mice were treated with 5 mg/kg of BT-108-1 or vehicle, daily for four weeks.
Immunological analysis. Spleens were excised from mice. Tissues were crushed and filtered to provide a cellular suspension. Red blood cells were lysed. Cells were labeled with mixtures of extracellular (CD45, CD3, CD4, CD8, B220, CD19, CD138, CD21, CD24, CD1d, CD11b, CD86, CD80) and intracellular (BCL6, IL21, IL10, TNF) antibodies in a sequential live staining in 96-well plates in preparation for flow cytometry. Data was captured on a BD FACS Celesta and analyzed using FACSDiva.

Compound	body weight normalized liver weights [1]	fibrotic scoring (Sirius red stained liver) [1]	liver triglycerides [1]	Th17 cells (CD4+ IL17+) in the colonic lamina propria [2]	histopathology score (colon) [2]	neutrophils in the colonic lamina propria [2]	IFNγ production / IFNγ+ CD4+ T cells [3]	TNFα production / TNF+ CD4+ T cells [3]	proportion of mice that developed hyperglycemia ([4]; by the end of the study)	fasting blood glucose levels ([4]; throughout the 12-week treatment period)	Th17 cells (CD4+ IL17+) in the spleen [5]	severity of disease (composite scoring of skin) [5]	proportion of IL-17+ CD4+ T cells in the spleens [6]	proportion of TNF+ immune cells in the spleens [6]
O=C(Nc1cncc(-c2cnnc3ccccc23)c1)C(O)(c1ccccc1)c1ncc[nH]1 (stereo not drawn) [BT-108-1, N-(5-(cinnolin-4-yl)pyridin-3-yl)-2-hydroxy-2-(1H-imidazol-2-yl)-2-phenylacetamide]	reduced	reduced	reduced	decreased	decreased	decreased	significant reduction	significant reduction	lower proportion	lower	reduced	reduced	significantly reduced	significantly reduced
COc1cccc(C(O)(C(=O)Nc2cncc(-c3cnnc4ccccc34)c2)c2ncc[nH]2)c1 (stereo not drawn) [BT-108-12, N-(5-(cinnolin-4-yl)pyridin-3-yl)-2-hydroxy-2-(1H-imidazol-2-yl)-2-(3-methoxyphenyl)acetamide]							significant reduction	significant reduction						
O=C(Nc1cncc(-c2cnnc3ccc(C(F)(F)F)cc23)c1)C(O)(c1ccccc1)c1ncc[nH]1 (stereo not drawn) [BT-108-15, N-(5-(6-trifluoromethylcinnolin-4-yl)pyridin-3-yl)-2-hydroxy-2-(1H-imidazol-2-yl)-2-phenylacetamide]							significant reduction	significant reduction						
